In the supplement of paper PMC4858399:

Tests used:
[1] = test system: Caenorhabditis elegans N2; test: lowest effective concentration for larval growth inhibition (size below effect threshold); higher = less potent; conditions: exposure time 48 h
Method in brief: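 Each well of a 96-well plate received 50 C. elegans N2 L1 larvae, which grew for 48 h at 20°C in K-medium containing killed bacteria, 1% DMSO and the chemical at 0.5, 1, 5, 10, 50, 100 or 200 µM. A Biosort recorded the extinction of every worm as its size, and these readings were log-transformed and averaged per well. The lowest effective concentration is defined as the first dose at which the plate-adjusted mean size falls below the threshold and stays below it at all higher doses; that threshold is 5.665.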

[2] = test system: Caenorhabditis elegans N2; test: mean nematode size ln(EXT) after 48 h, plate-adjusted (DMSO control set to 6) (ln(EXT), control-adjusted); higher = larger nematodes / less growth inhibition; conditions: exposure time 48 h
Method in brief: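 Synchronised C. elegans N2 L1 larvae were grown for 48 h at 20°C in K-medium containing killed OP50, 1% DMSO and 0.5–200 µM chemical, at 50 per well and 4–6 wells per treatment. The Biosort recorded extinction for each worm, and a growth model removed debris. Worm size was obtained by natural-logging these values and averaging them per well. For plate adjustment, the vehicle control mean was subtracted and 6 was added.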

Structure (SMILES) | lowest effective concentration [1] | mean nematode size ln(EXT) (ln) ([2]; 0.5 µM) | mean nematode size ln(EXT) (ln) ([2]; 1 µM) | mean nematode size ln(EXT) (ln) ([2]; 5 µM) | mean nematode size ln(EXT) (ln) ([2]; 10 µM) | mean nematode size ln(EXT) (ln) ([2]; 50 µM) | mean nematode size ln(EXT) (ln) ([2]; 100 µM) | mean nematode size ln(EXT) (ln) ([2]; 200 µM)
CCCN(CCC)C(=O)SCC [EPTC] | > 200 µM | 6.11 | 6.22 | 6.09 | 6 | 6.1 | 6.12 | 5.86
COc1cnc(OC)n2nc(NS(=O)(=O)c3c(OCC(F)F)cccc3C(F)(F)F)nc12 [Penoxsulam] | > 200 µM | 6.17 | 6.06 | 5.98 | 6.03 | 6.01 | 6.02 | 5.72
CNC(C)=O [N-Methylacetamide] | > 200 µM | 6.09 | 6.1 | 6.07 | 6.02 | 6.03 | 6.07 | 5.84
CNC(=O)CSP(=S)(OC)OC [Dimethoate] | > 200 µM | 6.23 | 6.15 | 6.18 | 6.23 | 6.24 | 6.21 | 5.95
Cc1ccc(C(C)C)cc1 [p-Cymene] | > 200 µM | 5.73 | 5.99 | 6.14 | 6.05 | 6.08 | 6.06 | 5.92
CCN(Cc1cccc(S(=O)(=O)O)c1)c1ccc(C(=C2C=CC(=[N+](CC)Cc3cccc(S(=O)(=O)O)c3)C=C2)c2ccccc2S(=O)(=O)[O-])cc1 [FD & C Blue no. 1] | > 200 µM | 5.85 | 5.87 | 5.91 | 5.88 | 5.89 | 5.92 | 5.89
CC(Oc1cccc(Cl)c1)C(=O)O (stereo not drawn) [Cloprop] | > 200 µM | 5.97 | 5.98 | 6.03 | 6.09 | 6.01 | 5.99 | 5.69
Clc1ccccc1-c1nnc(-c2ccccc2Cl)nn1 [Clofentezine] | > 200 µM | 6.25 | 6.03 | 6.11 | 5.96 | 5.86 | 5.98 | 5.73
CCCC(CCC)C(=O)O [Valproic Acid] | > 200 µM | 5.81 | 5.92 | 6.12 | 6.03 | 6.06 | 6.03 | 5.91
OC[C@H]1O[C@@H]2O[C@H]3[C@H](O)[C@@H](O)[C@@H](O[C@H]4[C@H](O)[C@@H](O)[C@@H](O[C@H]5[C@H](O)[C@@H](O)[C@@H](O[C@H]6[C@H](O)[C@@H](O)[C@@H](O[C@H]7[C@H](O)[C@@H](O)[C@@H](O[C@H]1[C@H](O)[C@H]2O)O[C@@H]7CO)O[C@@H]6CO)O[C@@H]5CO)O[C@@H]4CO)O[C@@H]3CO [alpha-Cyclodextrin] | > 200 µM | 5.83 | 5.83 | 5.77 | 5.87 | 5.88 | 5.82 | 5.74
Nc1nc(Cl)nc2c1ncn2[C@H]1C[C@H](O)[C@@H](CO)O1 [2-Chloro-2'-deoxyadenosine] | > 200 µM | 5.92 | 5.87 | 5.91 | 5.87 | 5.88 | 5.88 | 5.7
O=c1ccc(=O)[nH][nH]1 [Maleic hydrazide] | > 200 µM | 6.04 | 5.94 | 5.94 | 5.96 | 5.96 | 5.9 | 6.03
CCCCOC(=O)c1ccccc1C(=O)O [Monobutyl phthalate] | > 200 µM | 6.02 | 5.99 | 6.01 | 5.99 | 5.97 | 5.95 | 5.97
C[C@@H](Oc1ccc(CNC(=O)c2cccnc2Oc2ccc3c(c2)OCO3)c(F)c1)C(=O)O | > 200 µM | 5.79 | 5.84 | 5.86 | 5.84 | 5.92 | 5.86 | 5.72
CCCC(=O)O [Butanoic acid] | > 200 µM | 5.86 | 5.86 | 5.86 | 5.86 | 5.94 | 6 | 5.71
COCC(C)N(C(=O)CCl)c1c(C)csc1C (stereo not drawn) [Dimethenamid] | > 200 µM | 6.08 | 5.91 | 6.17 | 6.03 | 5.87 | 6.56 | 5.99
CC(=O)c1ccccc1 [Acetophenone] | > 200 µM | 6 | 6.01 | 6.03 | 6.08 | 6.16 | 6.11 | 5.78
Cc1occc(=O)c1O [Maltol] | > 200 µM | 6.08 | 5.97 | 6.02 | 6.07 | 6 | 5.93 | 5.76
OCCOCCO [Diethylene glycol] | > 200 µM | 5.91 | 5.95 | 5.92 | 5.86 | 5.92 | 5.78 | 5.69
Nc1nc(=S)c2[nH]cnc2[nH]1 [6-Thioguanine] | > 200 µM | 5.81 | 5.79 | 5.86 | 5.8 | 5.78 | 5.86 | 5.72
Cc1ccc(N(C)C)cc1 [N,N,4-Trimethylaniline] | > 200 µM | 5.82 | 5.87 | 5.94 | 5.79 | 5.76 | 5.72 | 5.73

Structure (SMILES) | lowest effective concentration [1] | mean nematode size ln(EXT) (ln) ([2]; 0.5 µM) | mean nematode size ln(EXT) (ln) ([2]; 1 µM) | mean nematode size ln(EXT) (ln) ([2]; 5 µM) | mean nematode size ln(EXT) (ln) ([2]; 10 µM) | mean nematode size ln(EXT) (ln) ([2]; 50 µM) | mean nematode size ln(EXT) (ln) ([2]; 100 µM) | mean nematode size ln(EXT) (ln) ([2]; 200 µM)
CCC(C)(NC(=O)c1cc(Cl)c(C)c(Cl)c1)C(=O)CCl (stereo not drawn) [Zoxamide] | > 200 µM | 5.75 | 5.81 | 5.67 | 5.64 | 5.48 | 4.67 | 5.7
O=P(OCCCl)(OCCCl)OCCCl [Tris(2-chloroethyl) phosphate] | > 200 µM | 5.87 | 5.82 | 5.89 | 5.86 | 5.86 | 5.87 | 5.77
COc1ccc2sc(C(=O)Nc3nnn[nH]3)c(OC(C)C)c2c1 | > 200 µM | 5.89 | 5.99 | 5.89 | 6.11 | 5.82 | 5.86 | 6.09
Nc1ccc([N+](=O)[O-])cc1 [4-Nitroaniline] | > 200 µM | 5.76 | 5.77 | 5.73 | 5.64 | 5.68 | 5.69 | 5.72
O=[N+]([O-])C(CO)(CO)CO [Tris(hydroxymethyl)nitromethane] | > 200 µM | 5.91 | 5.9 | 5.92 | 5.75 | 5.92 | 5.89 | 5.75
C=CCc1ccc(OC)c(OC)c1 [Methyleugenol] | > 200 µM | 6 | 5.97 | 6.02 | 5.98 | 5.99 | 5.99 | 5.7
Cc1ccn2nc(S(=O)(=O)Nc3c(F)cccc3F)nc2n1 [Flumetsulam] | > 200 µM | 5.91 | 5.95 | 6.03 | 6.05 | 5.93 | 6.02 | 5.88
CSc1nnc(C(C)(C)C)c(=O)n1N [Metribuzin] | > 200 µM | 5.83 | 5.88 | 5.91 | 5.85 | 5.84 | 5.87 | 5.78
Cc1ccc(C(C)C)c(O)c1 [Thymol] | > 200 µM | 5.92 | 5.82 | 5.66 | 5.65 | 5.67 | 5.51 | 5.72
OCC(CO)(CBr)CBr [2,2-Bis(bromomethyl)-1,3-propanediol] | 200 µM | 6.41 | 5.91 | 5.99 | 5.63 | 5.67 | 5.93 | 5.64
CNC(=O)O/N=C/C(C)(C)SC [Aldicarb] | > 200 µM | 5.86 | 5.88 | 5.74 | 5.74 | 5.55 | 5.25 | 5.75
O=C(O)c1cc(Oc2ccc(C(F)(F)F)cc2Cl)ccc1[N+](=O)[O-] [Acifluorfen] | > 200 µM | 5.84 | 5.92 | 5.76 | 6.05 | 6.01 | 6.24 | 5.94
Cn1ccnc1S [Methimazole] | > 200 µM | 5.77 | 5.89 | 5.88 | 5.83 | 5.91 | 5.9 | 5.95
COC(=O)c1ccccc1C(=O)OC [Dimethyl phthalate] | > 200 µM | 5.82 | 5.99 | 6.07 | 6.01 | 6.18 | 6.01 | 5.98
CC1(C)CON(Cc2ccccc2Cl)C1=O [Clomazone] | > 200 µM | 6.09 | 6.23 | 6.29 | 6.06 | 6.2 | 6.07 | 5.68
COC(=O)c1ccc(O)cc1 [Methylparaben] | > 200 µM | 6.02 | 5.99 | 5.95 | 6.11 | 6.02 | 6.06 | 5.7
S=C1NCCN1 [Ethylenethiourea] | > 200 µM | 6.18 | 5.97 | 6.08 | 6.19 | 6.12 | 6.12 | 5.69
Cc1ccccc1N [2-Methylbenzenamine] | > 200 µM | 5.79 | 5.87 | 5.76 | 5.89 | 5.91 | 5.73 | 5.89
Nc1cccc2c(N)cccc12 [1,5-Diaminonaphthalene] | > 200 µM | 5.81 | 5.79 | 5.81 | 5.77 | 5.64 | 5.53 | 5.73
CC(=O)C(C)=CC1C(C)=CCCC1(C)C (stereo not drawn) | > 200 µM | 5.84 | 5.8 | 5.9 | 5.86 | 5.84 | 5.93 | 5.79
